Reference: US8410168B2, “Methods and compositions for treating ophthalmic conditions with retinyl derivatives” (Acucela, Inc., priority 2004, dated 2013)

Tests used:
LRAT [1] = target: T1, LRAT (Bos taurus, UniProt Q9BGL2); assay: In vitro LRAT assay, retinyl ester synthesis by bovine RPE membranes/microsomes; format: biochemical
T1 construct: bovine RPE microsomes are used as an enzyme source; from tissue; host or cells: bovine retinal pigment epithelium (membranes / microsomes)
T1 sequence (Q9BGL2 1-230): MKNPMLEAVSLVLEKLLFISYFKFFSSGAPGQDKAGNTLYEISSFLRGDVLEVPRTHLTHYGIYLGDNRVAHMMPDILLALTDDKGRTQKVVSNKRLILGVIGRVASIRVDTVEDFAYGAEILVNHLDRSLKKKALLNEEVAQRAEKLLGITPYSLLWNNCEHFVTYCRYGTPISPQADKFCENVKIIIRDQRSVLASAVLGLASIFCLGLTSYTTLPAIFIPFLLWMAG
Description: (§1) We examined the effects on HPR on enzymes or proteins of the visual cycle using in vitro biochemical assays. Specifically, the utilization of exogenous all-trans retinol by membranes prepared from bovine RPE was studied. […] Steady-state levels of HPR in the RPE (determined from mice which have been given 20 mg/kg HPR, i.p., daily for 28 days) range from 5-10 μM. With this in mind, we examined the effects of 10 μM HPR on production of all-trans retinyl esters and 11-cis retinol in assays similar to those described above. […] In the presence of endogenous retinoids, utilization of exogenous all-trans retinol is extremely low and 11-cis retinol is produced solely from the endogenous all-trans retinyl esters. […] Thus, the retinoic acids appear to affect at least two targets in the visual cycle. We have determined that HPR-induced reduction of 11-cis retinol biosynthesis occurs via LRAT inhibition and reduction in all-trans retinyl ester levels. In this situation, the isomerase enzyme is starved for substrate and 11-cis retinol production declines.
A second target for HPR in the visual cycle was identified using in vitro biochemical assays. Lecithin retinol acyl transferase (LRAT) catalyzes the conversion of retinol into retinyl esters. LRAT is critical not only for retinol-retinyl ester homeostasis but also for generation of substrate for visual chromophore biosynthesis. The data shown in panel A of FIG. 16 illustrate the inhibitory effect of HPR on the rate of retinyl ester synthesis. In this assay, bovine RPE microsomes are used as an enzyme source and all-trans retinol (atROL) is the substrate. […] A secondary transformation (Eadie-Hofstee) of the kinetic data in panel A reveal that the mode of inhibition is competitive (see FIG. 16, panel B). Therefore, HPR competes with atROL for binding sites on LRAT. The apparent inhibition constant (Ki) was determined to be ˜6 μM. This means that at 6 μM HPR, the rate of retinyl ester synthesis would be decreased by 50%. In a separate study, we have determined that HPR concentrations in the RPE approach 10 μM with a 10 mg/kg dose of HPR.

CRALBP = target: T2, CRALBP (Homo sapiens, UniProt P12271); assay: Size exclusion chromatography study of binding to CRALBP; conditions: 4 μM apo-CRALBP, 8 μM ligand
T2 construct: made in house
Description: Apo-CRALBP at 4 μM was incubated with 8 μM of 11cRAL, atRAL or HPR in PBS at room temperature for 1 hour. In control experiment, equivalent volume of DMSO was added to the CRALBP solution. 50 μl of each sample mixture was analyzed by BioRad Bio-Sil SEC125 Gel Filtration Column (300×7.8 mm).

[2] = test system: 11-cis retinol biosynthesis; assay: In vitro 11-cis retinol production by bovine RPE membranes; format: biochemical; conditions: 10 μM HPR, p<0.05
Description: as §1

[3] = test system: patients with a variety of cancers; conditions: human patients; cited from earlier work
ABCA4−/− mice = assay: HPR drug holiday after 28 days of treatment; format: in vivo, mouse
Description: HPR (10 mg/kg in DMSO) was administered to ABCA4−/− mice daily for a period of 28 days. Control ABCA4−/− mice received only DMSO for the same period. […] Importantly, the observed reductions in lipofuscin autofluorescence persist long after cessation of HPR therapy. HPR (10 mg/kg), or DMSO, administration was discontinued following 28 days of treatment and re-evaluated A2E and precursor levels after 2 weeks and after 4 weeks.
We examined eyecup extracts by HPLC and employed detection by absorbance and fluorimetry. Identity of the indicated peaks was confirmed by on-line spectral analysis and by co-elution with authentic standards. […] Further, the A2E and precursor (A2PE-H2 and A2PE) levels after a […] or 28-day drug holiday remained at or near the levels immediately following 28 days of treatment (i.e., ca. 50% reduction relative to control), although after the 28-day drug holiday, the amount of A2E and precursor (A2PE-H2 and A2PE) had increased by a few percentage points relative to the 12-day drug holiday levels. […] It is clear that peak fluorescence tracks with the abundance of A2E, A2PE and A2PE-H2.
This effect cannot be attributed to long-term reductions in serum retinol as serum retinol had returned to baseline 48 hours following the last HPR dose. […] Furthermore, HPR reduces serum retinol levels, which leads to a reduction in the level of retinol in the eyes of treated animals. Once the level of retinol has been reduced in the eye, there is a time lag in the subsequent increase in retinol levels in the eye. Alone or in combination, the production of A2E, A2PE and A2PE-H2 in the eye remains low despite the absence of HPR in the serum or the eye.

LRAT [4] = target: T3, LRAT (Homo sapiens, UniProt O95237); conditions: cited from earlier work
T3 construct: host or cells: membranes from liver and small intestine
T3 sequence (O95237 1-230): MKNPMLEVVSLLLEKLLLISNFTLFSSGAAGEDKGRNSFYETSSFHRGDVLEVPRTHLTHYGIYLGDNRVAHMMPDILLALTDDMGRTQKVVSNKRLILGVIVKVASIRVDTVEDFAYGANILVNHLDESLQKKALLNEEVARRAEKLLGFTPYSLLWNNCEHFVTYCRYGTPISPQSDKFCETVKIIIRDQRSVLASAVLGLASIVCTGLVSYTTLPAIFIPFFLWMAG

T2 sequence (P12271 whole entry, species assumed): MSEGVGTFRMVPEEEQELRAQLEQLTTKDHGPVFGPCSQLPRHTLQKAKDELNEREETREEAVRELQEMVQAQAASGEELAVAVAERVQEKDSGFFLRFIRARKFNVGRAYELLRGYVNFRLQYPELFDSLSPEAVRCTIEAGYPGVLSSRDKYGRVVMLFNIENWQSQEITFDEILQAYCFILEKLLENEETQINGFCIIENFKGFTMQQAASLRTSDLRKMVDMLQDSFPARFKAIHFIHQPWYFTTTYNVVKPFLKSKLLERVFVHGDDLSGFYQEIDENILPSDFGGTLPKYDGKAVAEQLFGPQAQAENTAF

CC1=C(/C=C/C(C)=C/C=C/C(C)=C/C(=O)Nc2ccc(O)cc2)C(C)(C)CCC1 [HPR, N-(4-hydroxyphenyl)retinamide]
mode of inhibition of LRAT (LRAT [1]; Eadie-Hofstee transformation): competitive | net retinyl ester synthesis (LRAT [1]; bovine RPE microsomes, atROL substrate): decreases net retinyl ester synthesis in a concentration-dependent manner | Ki (LRAT [1]; bovine RPE microsomes, atROL substrate, read-out: apparent inhibition constant (Ki), LRAT): ~6 µM | IC50 (LRAT [1]; membranes from bovine RPE, exogenous all-trans retinol, read-out: half-maximal inhibition of LRAT): ~20 µM | ligand bound to CRALBP (monomer elution peak absorbance) (CRALBP): only small amount of HPR is bound to CRALBP | effect on 11-cis retinol biosynthesis [2]: statistically significant inhibition | plasma concentration after high fat meals versus carbohydrate meals [3]: three times greater | reduction of A2E and precursor (A2PE-H2 and A2PE) levels relative to control (ABCA4−/− mice; 10 mg/kg 28 days, then 12- or 28-day drug holiday): ca. 50% | detection in the eyes after drug holiday (ABCA4−/− mice; 28-day drug holiday): unable to detect | time for serum retinol to return to baseline after the last HPR dose (ABCA4−/− mice; mouse, in vivo): 48 h | LRAT activity in membranes prepared from liver and small intestine (LRAT [4]): marked inhibition
